Values belong to the compound of their own block, whether it stands above or below them.
Key:
[1] = test system: T. brucei brucei AnTat 1.9; assay: In vitro antitrypanosomal activity, Alamar Blue assay; format: cell-based; conditions: Trypanosoma brucei; slender bloodstream trypomastigotes, AnTat 1.9 strain; read-out: Trypanosoma brucei brucei IC50 values, Trypanos Antat 1.9
Outline: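 Viability read-out: resazurin (Alamar Blue) fluorescence, 530 nm excitation/590 nm emission, after 5 h dye exposure following 69 h compound incubation at 37 °C, 5% CO2, 2000 parasites per well, doses in duplicate. IC50 values fitted nonlinearly, three independent runs.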

[2] = test system: L. donovani (MHOM/IN/00/DEVI) promastigotes; assay: In vitro antileishmanial activity, MTT assay on promastigotes; format: cell-based; conditions: Leishmania donovani, 72 h incubation, ≥10 = no activity noted at the highest concentration tested
Outline: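 Log-phase L. donovani MHOM/IN/00/DEVI promastigotes (10^6/ml, Schneider's + 20% FCS) were exposed to graded compound concentrations (DMSO <0.5% v/v) for 72 h at 27 °C, in duplicate. Growth measured by MTT reduction (4 h, A570 nm); IC50 obtained by regression.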

human HepG2 cells = assay: Cytotoxicity evaluation, MTT; format: cell-based; conditions: HepG2 cells; 72 h
Outline: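 HepG2 hepatocarcinoma cells exposed to compound in duplicate, then viability measured by MTT reduction (0.5 mg/ml), formazan dissolved in DMSO and read at 570 nm against 630 nm. Viability expressed as percent of untreated cells; CC50 taken from dose-response curve, doxorubicin as positive control.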

[3] = test system: FPf8T (DNA, G4) GGGTTCAGGGTTCAGGGTTCAGGG; assay: FRET melting; conditions: 10 mM K+, 90 mM Li+; 10 mM lithium cacodylate pH 7.2; 2 µM compound, 0.2 µM oligonucleotide
[4] = test system: FtrypBT (FEBR1T; FtryBT) (DNA, G4) GGGCAGGGGGTGATGGGGAGGAGCCAGGG; assay: FRET melting; conditions: 10 mM K+, 90 mM Li+; 10 mM lithium cacodylate pH 7.2; 2 µM compound, 0.2 µM oligonucleotide
[5] = test system: F21T (DNA, G4) GGGTTAGGGTTAGGGTTAGGG; assay: FRET melting; conditions: 10 mM K+, 90 mM Li+; 10 mM lithium cacodylate pH 7.2; 2 µM compound, 0.2 µM oligonucleotide
[6] = test system: FPf1T (DNA, G4) GGGTTTAGGGTTTAGGGTTTAGGG; assay: FRET melting; conditions: 10 mM K+, 90 mM Li+; 10 mM lithium cacodylate pH 7.2; 2 µM compound, 0.2 µM oligonucleotide
[7] = test system: FdxT (DNA, duplex, hexaethylene glycol linker between nucleotides 10 and 11) TATAGCTATATATAGCTATA; assay: FRET melting; conditions: 10 mM K+, 90 mM Li+; 10 mM lithium cacodylate pH 7.2; 2 µM compound, 0.2 µM oligonucleotide

IC50 [1]: 0.2 ± 0.06 nM
IC50 [2]: 5.5 ± 0.8 µM
Compound: N=C(N)c1ccc(OCCCCCOc2ccc(C(=N)N)cc2)cc1 [Pentamidine, reference compound]
CC50 (human HepG2 cells): 2300 ± 500 nM

Compound: COc1ccc2cc(-c3ccc(CNCCCCN(C)C)cc3)nc(-c3ccc(CNCCCCN(C)C)cc3)c2c1
ΔTm [3]: 26.6 ± 0.2 °C
ΔTm [4]: 24.0 ± 0.3 °C
ΔTm [5]: 22.2 ± 0.1 °C
ΔTm [6]: 27.3 ± 1.1 °C
ΔTm [7]: 4.1 ± 0.3 °C

Compound: c1cc(CNCCN2CCOCC2)cc(-c2nc(-c3cccc(CNCCN4CCOCC4)c3)c3ccccc3n2)c1
ΔTm [3]: 0.5 ± 0.4 °C
ΔTm [4]: 0.6 ± 0.1 °C
ΔTm [5]: 0.1 ± 0.1 °C
ΔTm [6]: 0.5 ± 0.3 °C

From publication PMC6968685 (Journal of Enzyme Inhibition and Medicinal Chemistry, 2020)
